Reference: patent publication US20190322676A1, “CERAMIDE GALACTOSYLTRANSFERASE INHIBITORS FOR THE TREATMENT OF DISEASE” (BioMarin Pharmaceutical Inc., priority 2016, published 2019)
Counter-ions that a name gives are not always drawn.

What follows are compounds tested against T1, human CGT (ceramide galactosyltransferase), CHO/CGT lysate (Homo sapiens, UniProt Q16880) (assay: CGT enzyme assay, LC-MS/MS readout (Table 1 ranges without asterisk)). Conditions: LC-MS/MS method (range without asterisk).
T1 construct: Full-length human CGT cDNA was cloned into the BamH1/Xho1 site of pcDNA3.1 (+); expressed in transfected cells; host or cells: Chinese hamster ovary (CHO) cells; lysate prepared with M-PER
T1 sequence (Q16880 21-541): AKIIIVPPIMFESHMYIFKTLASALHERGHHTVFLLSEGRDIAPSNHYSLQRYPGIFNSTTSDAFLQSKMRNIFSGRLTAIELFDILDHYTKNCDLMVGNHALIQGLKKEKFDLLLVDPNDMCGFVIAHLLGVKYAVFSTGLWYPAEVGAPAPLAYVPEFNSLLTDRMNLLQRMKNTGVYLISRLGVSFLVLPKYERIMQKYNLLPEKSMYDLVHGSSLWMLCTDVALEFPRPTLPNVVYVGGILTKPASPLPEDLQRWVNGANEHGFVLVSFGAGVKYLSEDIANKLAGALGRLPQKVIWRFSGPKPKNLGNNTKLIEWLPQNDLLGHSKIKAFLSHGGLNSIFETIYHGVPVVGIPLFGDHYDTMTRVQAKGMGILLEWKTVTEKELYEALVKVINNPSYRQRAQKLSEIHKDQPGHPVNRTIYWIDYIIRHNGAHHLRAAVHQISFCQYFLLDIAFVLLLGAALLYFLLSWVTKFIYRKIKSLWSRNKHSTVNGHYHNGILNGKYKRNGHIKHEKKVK
Format: biochemical
Description: Full-length human CGT cDNA was cloned into the BamH1/Xho1 site of pcDNA3.1 (+) mammalian expression vector (V90-20, Invitrogen, Carlsbad, Calif.) and the plasmid was transfected into Chinese hamster ovary (CHO) cells. Lysate was prepared using M-PER (Mammalian Protein Extraction Reagent, ThermoFisher Scientific, Grand Island, N.Y.) in the presence of a protease inhibitor cocktail (P8340, Sigma, Saint Louis, Mo.). Each 100 mm dish (100% confluent, approximately 1×10^7 cells) was lysed with 250 μL of M-PER containing protease inhibitors. Protein concentration was determined using a Pierce BCA protein assay kit (ThermoFisher Scientific). Four micrograms of CHO/CGT lysate was incubated with various concentrations of a compound (0.001 μM-50 μM) in 10 mM HEPES (pH 7.2) containing 35 μM dioleoylphosphatidylcholine, 5 mM MgCl2, 5 mM MnCl2, 1% BSA, 15 mM KCl, 1 mM EGTA, 8 mM CHAPS, 10 μM C6-NBD-dihydro-ceramide and 17.5 μM UDP-galactose in a final reaction volume of 20 μL at 37° C. for 1 hour. The final concentration of DMSO was 0.5% in both compound-treated and mock-treated samples. Tween 80 (0.01%) was optionally added to the reaction mixture to help solubilize the compounds. Each individual reaction was diluted with 80 μL of methanol:acetronitrile (1:3) containing 5 μM N-docdecanoyl-NBD-galactosylceramide (internal standard) to stop the reaction. 200 μL H2O:acetonitile (1:1) was added to precipitate the protein. After sufficient mixing, the plates were centrifuged at 2469 g for 38 minutes, 200 μL of supernatant was transferred to a LC/MS 96-deep well plate and a second spin was performed at 2469 g for 10 minutes. The final supernatant was injected in triplicate for RapidFire/MS/MS analysis.
An alternative LC-MS/MS based method was also used. For the LC-MS/MS readout, the CGT assay was identical to the one described above except for the following: […] was used as the CGT enzyme source, C12:0 (2R—OH) ceramide was used as the ceramide substrate and 0.3 μM Cl2 ceramide was used as the internal standard. Tween 80 was not present in the reaction mixture. The final supernatant was injected for LC-MS/MS analysis.
Quantitative analysis using the LC-MS/MS method: The quantitative analysis of C12:0 (2R—OH) ceramide and C12:0 (2R—OH) galactosylceramide by LC-MS/MS was performed on a Shimadzu ultra-fast liquid chromatography (Shimadzu, Japan) coupled with API 4000 mass spectrometer (Applied Biosystems, Concord, Ontario, Canada). Analyst 1.5 software packages (Applied Biosystems) were used to control the LC-MS/MS system, as well as for data acquisition and processing. 10 μL of sample was loaded onto a Luna C18 column (50 mm×2.0 mm, I.D. 3 μm, 100A) (Phenomenex, USA) for chromatographic separation. Mobile phase A consisted of HPLC grade water with 0.1% formic acid (v/v) and mobile phase B consisted of acetonitrile supplemented with 0.1% formic acid (v/v). The separation was achieved using the following gradient program at a flow rate of 0.8 mL/min: the initial mobile phase was 70% B, which was increased in a linear fashion to 95% B in 1.50 min, and then maintained at 95% B until 3.50 min. The mobile phase was then reset to 70% B within 0.01 min, and maintained until 4.50 min. The total run time was 4.50 min. The MS/MS detection was performed in ESI positive mode. The mass transition selected for quantification was m/z 498.5-264.3 for C12:0 (2R—OH) ceramide under the collision energy of 38.8 V, and the mass transition of C12:0 (2R—OH) galactosylceramide was m/z 660.6-264.5 under the collision energy of 51 V. The mass transition of Cl2 ceramide which was used as internal standard was m/z 482.4-264.3 under the collision energy of 33V. Compound IC50 values were calculated using a protocol identical to the one described for the RapidFire method (see Table 1, where data ranges without an asterix correspond to analysis using the LC-MS/MS method).
Using the above CGT enzyme and CGT cellular assays, the compounds of Table 1 were tested. […]

SMILES	IC50 [µM]
CCCCCCOc1ccc(S(=O)(=O)N[C@@H](C(=O)N2C3CCC2CC(N)C3)C(F)(F)c2ccc(Br)cc2)cc1 (stereo partly drawn) [Compound 23-2, N-((2S)-3-(3-amino-8-azabicyclo[3.2.1]octan-8-yl)-1-(4-bromophenyl)-1,1-difluoro-3-oxopropan-2-yl)-4-(hexyloxy)benzenesulfonamide]	30 to 100
CC[C@H](C)Oc1ccc2cc(S(=O)(=O)N[C@@H](C(=O)N3C4CCC3CC(N)C4)C(F)(F)c3ccc(Br)cc3)ccc2c1 (stereo partly drawn) [Compound 13-2, N-((2S)-3-(3-amino-8-azabicyclo[3.2.1]octan-8-yl)-1-(4-bromophenyl)-1,1-difluoro-3-oxopropan-2-yl)-6-((S)-sec-butoxy)naphthalene-2-sulfonamide]	10 to 30
CCCCOc1ccc2cc(S(=O)(=O)N[C@H](C(=O)N3C4CCC3CC(N)C4)C(F)(F)c3ccc(Br)cc3)ccc2c1 (stereo partly drawn) [Compound 6-1, N-((2R)-3-(3-amino-8-azabicyclo[3.2.1]octan-8-yl)-1-(4-bromophenyl)-1,1-difluoro-3-oxopropan-2-yl)-6-butoxynaphthalene-2-sulfonamide trifluoroacetate]	1 to 10
NC1CC2CCC(C1)N2C(=O)[C@H](NS(=O)(=O)c1ccc(Oc2ccc(F)cc2)cc1)C(F)(F)c1ccc(Br)cc1 (stereo partly drawn) [Compound 25-2, N-((2S)-3-(3-amino-8-azabicyclo[3.2.1]octan-8-yl)-1-(4-bromophenyl)-1,1-difluoro-3-oxopropan-2-yl)-4-(4-fluorophenoxy) benzenesulfonamide trifluoroacetate]	30 to 100
CC(C)Oc1ccc2cc(S(=O)(=O)N[C@H](C(=O)N3C4CCC3CC(N(C)C)C4)C(F)(F)c3ccc(Br)cc3)ccc2c1 (stereo partly drawn) [Compound 21-1, N-((2R)-1-(4-bromophenyl)-3-(3-(dimethylamino)-8-azabicyclo[3.2.1]octan-8-yl)-1,1-difluoro-3-oxopropan-2-yl)-6-isopropoxynaphthalene-2-sulfonamide]	10 to 30
NC1CC2CCC(C1)N2C(=O)C(NC(=O)C(=O)c1ccc(-c2ccc(F)cc2)cn1)C(F)(F)c1ccc(Br)cc1 (stereo not shown) [Compound 14, N-(3-(3-amino-8-azabicyclo[3.2.1]octan-8-yl)-1-(4-bromophenyl)-1,1l-difluoro-3-oxopropan-2-yl)-2-(5-(4-fluorophenyl)pyridin-2-yl)-2-oxoacetamide trifluoroacetate]	30 to 100
NC1CC2CCC(C1)N2C(=O)[C@H](NS(=O)(=O)c1ccc(OCc2ccc(Cl)cc2)cc1)C(F)(F)c1ccc(Br)cc1 (stereo partly drawn) [Compound 15-2, N-((2S)-3-(3-amino-8-azabicyclo[3.2.1]octan-8-yl)-1-(4-bromophenyl)-1,1-difluoro-3-oxopropan-2-yl)-4-((4-chlorobenzyl)oxy) benzenesulfonamide trifluoroacetate]	30 to 100
CC(C)Oc1ccc2cc(S(=O)(=O)N[C@@H](C(=O)N3CCC(N)CC3)C(F)(F)c3ccc(Br)cc3)ccc2c1 [Compound 27-2, (S)—N-(3-(4-aminopiperidin-1-yl)-1-(4-bromophenyl)-1,1-difluoro-3-oxopropan-2-yl)-6-isopropoxynaphthalene-2-sulfonamide trifluoroacetate]	10 to 30
CC(C)Oc1ccc2cc(S(=O)(=O)N[C@H](C(=O)N3CCC(N)CC3)C(F)(F)c3ccc(Br)cc3)ccc2c1 [Compound 27-1, (R)—N-(3-(4-aminopiperidin-1-yl)-1-(4-bromophenyl)-1,1-difluoro-3-oxopropan-2-yl)-6-isopropoxynaphthalene-2-sulfonamide trifluoroacetate]	1 to 10
NC1CC2CCC(C1)N2C(=O)[C@@H](NS(=O)(=O)c1ccc(OCC2CCCC2)cc1)C(F)(F)c1ccc(Br)cc1 (stereo partly drawn) [Compound 20-1, N-((2R)-3-(3-amino-8-azabicyclo[3.2.1]octan-8-yl)-1-(4-bromophenyl)-1,1-difluoro-3-oxopropan-2-yl)-4-(cyclopentylmethoxy)benzenesulfonamide trifluoroacetate]	1 to 10
